Results published in PubChem BioAssay (NCI).
Values joined by “and” are separate entries in the source; they are usually repeats but may differ in a detail not shown here. Identical values can stand only once.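 Where inhibition never reached the appropriate level, the endpoint shown equals the highest concentration tested. Otherwise, values were interpolated linearly from a five-concentration, 48-hour dose response in 96-well plates. GI50: concentration for 50% inhibition of growth. TGI: total growth inhibition.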

Columns and labels:
Experiment in all cases: NCI tumour cell line growth inhibition, 48 h
SR leukemia = test system: SR leukemia
SNB-19 CNS = test system: SNB-19 CNS
HL-60(TB) leukemia = test system: HL-60(TB) leukemia
HOP-62 NSCLC = test system: HOP-62 NSCLC
NCI-H23 lung = test system: NCI-H23 lung
MDA-MB-231 breast = test system: MDA-MB-231 breast
SK-MEL-28 melanoma = test system: SK-MEL-28 melanoma
CAKI-1 renal = test system: CAKI-1 renal
SK-MEL-5 melanoma = test system: SK-MEL-5 melanoma
PC-3 prostate = test system: PC-3 prostate
OVCAR-4 ovarian = test system: OVCAR-4 ovarian

Row | Compound | TGI (SR leukemia) | TGI (SNB-19 CNS) [µM] | TGI (HL-60(TB) leukemia) | TGI (HOP-62 NSCLC) [µM] | TGI (NCI-H23 lung) | TGI (MDA-MB-231 breast) | TGI (SK-MEL-28 melanoma) | TGI (CAKI-1 renal) | TGI (SK-MEL-5 melanoma) | TGI (PC-3 prostate) | TGI (OVCAR-4 ovarian) | GI50 (SR leukemia) [µM] | GI50 (SNB-19 CNS) [µM] | GI50 (HL-60(TB) leukemia) [µM] | GI50 (NCI-H23 lung) [µM] | GI50 (SK-MEL-28 melanoma) [µM] | GI50 (CAKI-1 renal) [µM] | GI50 (SK-MEL-5 melanoma) [µM] | GI50 (OVCAR-4 ovarian) [µM]
1 | O=C1OC(c2ccccc2)=NC1c1ccccc1 (stereo unspecified) | > 100 µM | > 100 | > 100 µM | > 100 | > 100 µM | > 100 µM | > 100 µM | > 100 µM | > 100 µM | > 100 µM | > 100 µM | – | – | – | – | – | – | – | –
2 | Brc1ccc(C2C3CSc4ccccc4C3=NN2c2ccccc2)cc1 (stereo unspecified) | > 100 µM | > 100 | > 100 µM | > 100 | > 100 µM | > 100 µM | > 100 µM | > 100 µM | > 100 µM | > 100 µM | 91.7 µM | – | – | – | – | – | – | – | –
3 | NS(=O)(=O)c1ccc(NC(=O)N/N=C/c2ccccc2O)cc1 | > 100 µM | > 100 | > 100 µM | > 100 | > 100 µM | > 100 µM | > 100 µM | > 100 µM | > 100 µM | > 100 µM | > 100 µM | – | – | – | – | – | – | – | –
4 | COC1(CC[C@@H](C)COC2OC(CO)C(O)C(O)C2O)O[C@H]2C[C@H]3[C@@H]4CC=C5C[C@@H](OC6OC(CO)C(OC7OC(C)C(O)C(O)C7O)C(O)C6OC6OC(C)C(O)C(O)C6O)CC[C@]5(C)[C@H]4CC[C@]3(C)[C@H]2[C@@H]1C (stereo partly specified) | – | 6.54 | 13.4 µM | 4.04 | 9.14 µM | 6.66 µM | 5.53 µM | 2.61 µM | 12.2 µM | 9.58 µM | 6.72 µM | 2.96 | 2.46 | 3.47 | 2.95 | 2.26 | 1.25 | 3.51 | 2.44
5 | CC(CSC(=N)N)C(N)=O (stereo unspecified) | > 100 µM | > 100 | > 100 µM | > 100 | > 100 µM | > 100 µM | > 100 µM | > 100 µM | > 100 µM | > 100 µM | > 100 µM | – | – | – | – | – | – | – | –
6 | COC(=O)C(CC(C)C)NC(=O)C(NC(=O)c1ccc(-c2ccc(Cl)cc2Cl)o1)C(C)C (stereo unspecified) | > 100 µM | > 100 | 30.8 µM | 65.4 | > 100 µM | 35.3 µM | > 100 µM | > 100 µM | 49.9 µM | > 100 µM | > 100 µM | – | – | – | – | – | – | – | –
7 | COc1ccc(C(O)/C(=N/N)c2nc3ccc(Cl)cc3[nH]c2=O)cc1 (stereo unspecified) | > 100 µM | > 100 | > 100 µM | > 100 | > 100 µM | > 100 µM | > 100 µM | > 100 µM | > 100 µM | > 100 µM | > 100 µM | – | – | – | – | – | – | – | –
8 | C=CCCC1(O)C(O)C(CO)O[C@H](O[C@@]2(CO)OC(CO)C(O)C2O)C1O (stereo partly specified) | > 100 µM | > 100 | > 100 µM | > 100 | > 100 µM | > 100 µM | > 100 µM | > 100 µM | > 100 µM | > 100 µM | > 100 µM | – | – | – | – | – | – | – | –
9 | O=C1Oc2ccccc2C1C/C(=N\Nc1ccccc1)c1ccccc1O (stereo unspecified) | 58.1 µM | > 100 | > 100 µM | > 100 | 74 µM | > 100 µM | > 100 µM | > 100 µM | > 100 µM | > 100 µM | > 100 µM | – | – | – | – | – | – | – | –
10 | COc1ccc(/C=c2\c(=O)[nH]c3nc4ccccc4c(=O)n23)cc1 | > 100 µM | > 100 | > 100 µM | > 100 | > 100 µM | > 100 µM | > 100 µM | > 100 µM | > 100 µM | > 100 µM | > 100 µM | – | – | – | – | – | – | – | –
11 | CC(=O)CCCCn1c(=O)c2c(nc(Br)n2C)n(C)c1=O | > 100 µM | > 100 | > 100 µM | > 100 | > 100 µM | > 100 µM | > 100 µM | 3.87 µM | > 100 µM | > 100 µM | > 100 µM | – | – | – | – | – | – | – | –
12 | O=C/C(=C1/C=Cc2cc([N+](=O)[O-])ccc2S1)c1ccccc1 | > 100 µM | > 100 | > 100 µM | > 100 | > 100 µM | > 100 µM | > 100 µM | > 100 µM | > 100 µM | > 100 µM | > 100 µM | – | – | – | – | – | – | – | –
13 | Clc1ccc(Cl)c(N=Nc2cc3c4c(c2)CCN4CCC3)c1 | > 10 µM | > 10 | > 10 µM | > 10 | > 10 µM | > 10 µM | > 10 µM | > 10 µM | > 10 µM | > 10 µM | > 10 µM | – | – | – | – | – | – | – | –
14 | C[N+](C)(CCCCCC[N+](C)(C)CCCN1C(=O)c2cccc3cccc(c23)C1=O)CCCN1C(=O)c2cccc3cccc(c23)C1=O | > 100 µM | > 100 | > 100 µM | – | > 100 µM | > 100 µM | > 100 µM | > 100 µM | > 100 µM | > 100 µM | > 100 µM | – | – | – | – | – | – | – | –
15 | COc1nc(N=P(c2ccccc2)(c2ccccc2)c2ccccc2)cc(=O)n1C | > 100 µM | > 100 | > 100 µM | > 100 | > 100 µM | > 100 µM | > 100 µM | > 100 µM | > 100 µM | > 100 µM | > 100 µM | – | – | – | – | – | – | – | –
16 | CC1=CC(=O)CC2(C)CCC(C(C)CC(=O)CC(C)C)CC12OO (stereo unspecified) | 41.5 µM and 41.4 µM | > 100 | 74.7 µM and 17.4 µM | – | 39.8 µM and 54.9 µM | 29.5 µM and 32.7 µM | 28.5 µM and 32.5 µM | 33.5 µM and 33.4 µM | 35.5 µM and 30.3 µM | 29.1 µM and 27.3 µM | 29.8 µM and > 100 µM | – | – | – | – | – | – | – | –
